Experimental data as given in publication PMC7362391, “USP30 sets a trigger threshold for PINK1–PARKIN amplification of mitochondrial ubiquitylation” (Life Science Alliance, 2020).

How the values were obtained:
[1] = molecular target: USP6 (Homo sapiens, UniProt P35125); experiment: DUB profiler selectivity panel (Ubiquigent) at […]; format: biochemical
[2] = molecular target: T1, USP30 (Homo sapiens, UniProt Q70CQ3); experiment: bio-layer interferometry (no significant off-rate); IC50 and kinact/KI with purified USP30 and ubiquitin-rhodamine; Ub-PA competition in lysate and cells; format: biochemical
T1 construct: BLI: residues 64-502Δ179-216 & 288-305 (biotinylated); activity assay: residues 57-517
T1 sequence (Q70CQ3 57-517): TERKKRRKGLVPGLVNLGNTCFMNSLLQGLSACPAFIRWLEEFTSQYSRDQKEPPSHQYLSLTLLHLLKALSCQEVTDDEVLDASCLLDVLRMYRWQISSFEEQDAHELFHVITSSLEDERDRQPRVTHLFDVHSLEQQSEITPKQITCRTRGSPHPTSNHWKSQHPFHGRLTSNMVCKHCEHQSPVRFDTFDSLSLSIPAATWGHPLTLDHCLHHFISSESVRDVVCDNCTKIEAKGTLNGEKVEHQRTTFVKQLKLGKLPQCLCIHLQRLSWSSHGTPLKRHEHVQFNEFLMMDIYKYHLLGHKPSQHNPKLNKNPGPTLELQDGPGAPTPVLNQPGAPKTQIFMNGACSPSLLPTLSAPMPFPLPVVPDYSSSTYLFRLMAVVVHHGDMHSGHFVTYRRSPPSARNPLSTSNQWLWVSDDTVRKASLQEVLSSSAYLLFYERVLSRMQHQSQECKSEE
Description: bio-layer interferometry (no significant off-rate); IC50 and kinact/KI with purified USP30 and ubiquitin-rhodamine; Ub-PA competition in lysate and cells on USP30 | Bio-layer interferometry experiments show binding behaviour that is consistent with covalent modification of USP30

Chain of USP6 (P35125 whole entry): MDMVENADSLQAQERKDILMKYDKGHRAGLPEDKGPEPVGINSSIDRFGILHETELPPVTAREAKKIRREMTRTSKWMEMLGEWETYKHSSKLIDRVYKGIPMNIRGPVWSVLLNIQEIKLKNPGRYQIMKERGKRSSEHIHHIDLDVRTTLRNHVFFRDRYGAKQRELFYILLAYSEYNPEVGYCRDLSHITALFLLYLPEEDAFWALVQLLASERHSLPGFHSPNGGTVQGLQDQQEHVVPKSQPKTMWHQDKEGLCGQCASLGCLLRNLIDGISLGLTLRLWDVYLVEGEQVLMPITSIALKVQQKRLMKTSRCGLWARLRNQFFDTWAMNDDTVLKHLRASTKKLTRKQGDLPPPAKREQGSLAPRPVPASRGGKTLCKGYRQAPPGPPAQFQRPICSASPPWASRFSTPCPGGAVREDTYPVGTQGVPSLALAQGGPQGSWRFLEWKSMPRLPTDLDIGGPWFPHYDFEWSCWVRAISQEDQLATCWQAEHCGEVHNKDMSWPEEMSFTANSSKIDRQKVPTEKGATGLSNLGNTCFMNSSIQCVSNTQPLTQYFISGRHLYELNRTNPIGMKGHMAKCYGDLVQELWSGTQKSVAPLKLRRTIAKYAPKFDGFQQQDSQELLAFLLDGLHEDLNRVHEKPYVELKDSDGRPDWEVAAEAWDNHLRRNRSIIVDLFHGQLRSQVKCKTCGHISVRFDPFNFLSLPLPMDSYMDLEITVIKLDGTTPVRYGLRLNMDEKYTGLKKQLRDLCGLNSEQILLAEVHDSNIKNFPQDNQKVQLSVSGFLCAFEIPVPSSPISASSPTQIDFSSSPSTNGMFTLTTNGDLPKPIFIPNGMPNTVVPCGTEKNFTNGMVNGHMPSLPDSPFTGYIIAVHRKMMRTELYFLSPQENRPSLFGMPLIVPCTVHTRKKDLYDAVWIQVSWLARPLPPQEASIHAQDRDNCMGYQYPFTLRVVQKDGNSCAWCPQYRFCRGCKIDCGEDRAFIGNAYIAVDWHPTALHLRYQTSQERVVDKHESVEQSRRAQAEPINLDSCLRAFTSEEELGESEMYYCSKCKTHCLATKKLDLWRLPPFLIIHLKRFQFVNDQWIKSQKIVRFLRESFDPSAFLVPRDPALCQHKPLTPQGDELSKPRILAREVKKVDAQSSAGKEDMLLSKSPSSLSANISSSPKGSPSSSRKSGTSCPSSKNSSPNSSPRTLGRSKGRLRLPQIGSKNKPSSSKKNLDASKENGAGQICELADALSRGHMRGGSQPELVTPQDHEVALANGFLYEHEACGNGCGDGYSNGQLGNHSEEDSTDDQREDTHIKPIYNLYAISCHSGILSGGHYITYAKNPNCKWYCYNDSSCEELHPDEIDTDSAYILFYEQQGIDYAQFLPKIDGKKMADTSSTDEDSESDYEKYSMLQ

## N#CN1CCC(NC(=O)c2cc(-c3ccccc3Oc3ccccc3)n[nH]2)C1 (centres unmarked) [FT385, FT3967385]
[1]
  DUB profiler selectivity panel (Ubiquigent) at 2, 20 and 200 nM: Only one other family member, the plasma membrane–associated USP6, showed a significant degree of inhibition
[2]
  IC50: ~1 nM
